{"source": "patent US5616604A", "about": "“Aminopyrrolizinone analogues for anti-inflammation and analgesia (II)” (priority 1996, dated 1997)", "key": {"[1]": {"system": "carrageenin-induced paw edema", "assay": "inhibition of carrageenin-induced paw edema in rat", "assay_type": "in vivo", "settings": "oral, male rats, dose/LD50: SFZ-47 1/15, SFZ-58 1/10, ibuprofen 1/5, indomethacin 1/4; for carrageenin-induced paw edema, 1 hour: N.S. 0.40 ± 0.00; for carrageenin-induced paw edema, 2 hours: N.S. 0.78 ± 0.09; for carrageenin-induced paw edema, 3 hours: N.S. 0.75 ± 0.09; for carrageenin-induced paw edema, 4 hours: N.S. 0.75 ± 0.05; for carrageenin-induced paw edema, 5 hours: N.S. 0.76 ± 0.09", "procedure": "The influence of SFZ-47, 58 on inhibition of Carrageenin-Induced Paw Edema in Rat.\nThe test agent was administered by oral liquid to male rats of weight 140-180 g. 0.05 ml of 1% carrageenin injected into the pad of the right hind paw 1 hour later. The perimeter of the rat ankles were measured each hour after compound administration."}, "[2]": {"system": "mouse writhing induced by acetic acid", "assay": "inhibition of acetic acid-induced writhe in mice", "assay_type": "in vivo", "settings": "oral, female mice, dose/LD50: SFZ-47 1/15, SFZ-58 1/10, ibuprofen 1/5, indomethacin 1/4; for Numb. of writhing (x ± SD): 0.7% acetic acid i.p. 1 h later, 20 min observation, N.S. 17.0 ± 6.8; for Rate of inhibition (%): writhing vs normal saline", "procedure": "The influence of SFZ-47, 58 on inhibition of acetic acid-induces writhe.\nSFZ-47 and SFZ-58 were suspended in 0.5% carboxymethylcellulose (CMC) and administered per os. to female mice of weight 18-24 g. 1 hour later, 0.2 ml of a 0.7% solution of acetic acid was injected to mouse by intraperironeally. The animals were observed during the next 20 min. for writhe."}, "[3]": {"system": "gastric mucosa of rats", "assay": "effects on gastric mucosa of rats (ulcer index)", "assay_type": "in vivo, rat", "settings": "n = 5, SFZ-47 400 mg/kg, SFZ-58 300 mg/kg, ibuprofen 200 mg/kg, indomethacin 10 mg/kg", "text": "Effects of SFZ-47 and SFZ-58 on gastric mucosa of rats"}, "[4]": {"system": "splanchnic vascular bed", "settings": "prior art, in words; cited from earlier work"}, "[5]": {"system": "cerebral circulation", "settings": "prior art, cited from earlier work"}}}
{"smiles": "CC(C)Cc1ccc(C(C)C(=O)O)cc1", "note": "(stereo not shown) [Ibuprofen]", "values": [{"measurement": "carrageenin-induced paw edema, 1 hour", "setting": "[1]", "value": "0.29 ± 0.06"}, {"measurement": "carrageenin-induced paw edema, 2 hours", "setting": "[1]", "value": "0.41 ± 0.11"}, {"measurement": "carrageenin-induced paw edema, 3 hours", "setting": "[1]", "value": "0.52 ± 0.00"}, {"measurement": "carrageenin-induced paw edema, 4 hours", "setting": "[1]", "value": "0.51 ± 0.00"}, {"measurement": "carrageenin-induced paw edema, 5 hours", "setting": "[1]", "value": "0.47 ± 0.10"}, {"measurement": "Numb. of writhing (x ± SD)", "setting": "[2]", "value": "4.3 ± 3.9"}, {"measurement": "Rate of inhibition (%)", "setting": "[2]", "value": 75, "unit": "%"}, {"measurement": "Ulcer index", "setting": "[3]", "value": "13.3 ± 4.2", "unit": "mm^2"}]}
{"smiles": "COc1ccc2c(c1)c(CC(=O)O)c(C)n2C(=O)c1ccc(Cl)cc1", "note": "[Indomethacin]", "values": [{"measurement": "carrageenin-induced paw edema, 1 hour", "setting": "[1]", "value": "0.21 ± 0.18"}, {"measurement": "carrageenin-induced paw edema, 2 hours", "setting": "[1]", "value": "0.33 ± 0.08"}, {"measurement": "carrageenin-induced paw edema, 3 hours", "setting": "[1]", "value": "0.45 ± 0.08"}, {"measurement": "carrageenin-induced paw edema, 4 hours", "setting": "[1]", "value": "0.43 ± 0.13"}, {"measurement": "carrageenin-induced paw edema, 5 hours", "setting": "[1]", "value": "0.43 ± 0.13"}, {"measurement": "Numb. of writhing (x ± SD)", "setting": "[2]", "value": "2.7 ± 1.5"}, {"measurement": "Rate of inhibition (%)", "setting": "[2]", "value": 84, "unit": "%"}, {"measurement": "blood flow in the splanchnic vascular bed", "setting": "[4]", "value": "diminishes blood flow in the splanchnic vascular bed"}, {"measurement": "cerebral blood flow response to hypercapnia", "setting": "[5]; in words", "value": "abolishing cerebral blood flow response to hypercapnia"}, {"measurement": "decrease of cerebral blood flow", "setting": "[5]", "value": "25-35%"}, {"measurement": "Ulcer index", "setting": "[3]", "value": "14.0 ± 6.9", "unit": "mm^2"}]}
